Fluorescence lifetime data for 33 molecules are collected here from the Deep4Chem optical property database.

This data set can be described thus: solvent given as SMILES.

Under “in ClC(Cl)Cl”, `CC1=CC(C)=[N+]2C1=C(c1ccc(I)cc1)c1c(C)cc(C)n1[B-]2(Oc1ccccc1)Oc1ccccc1` came in with a fluorescence lifetime of 0.38 ns.
As for `CC1(C)c2ccccc2N(c2ccc3c(c2)c2cc(N4c5ccccc5C(C)(C)c5ccccc54)ccc2c2nc4ccccc4nc32)c2ccccc21`, under “in c1cc(-c2cccc(-n3c4ccccc4c4ccccc43)c2)cc(-n2c3ccccc3c3ccccc32)c1”, the fluorescence lifetime came to 58 ns.
Consider `Cc1ccc(C)n1-c1ccccc1`, for which the fluorescence lifetime (in CC#N) worked out at 5 ns.
Regarding `COc1cc(N2CCOCCOCCN(c3cc(OC)c(NC(=O)c4ccc(-c5c6cc(Cl)c(=O)cc-6oc6cc([O-])c(Cl)cc56)c(C(=O)[O-])c4)cc3OC)CCOCC2)c(OC)cc1NC(=O)c1ccc(-c2c3cc(Cl)c(=O)cc-3oc3cc([O-])c(Cl)cc23)c(C(=O)[O-])c1`, the fluorescence lifetime (in O) was 1.13 ns.
Regarding `CCCc1c(C(=O)c2ccc3c4c(cccc24)-c2cccc4c2C3CC=C4)c2ccc3cccc4c5cccc6ccc1c(c65)c2c34` (stereo not drawn), the fluorescence lifetime (in ClCCl) stood at 1.04 ns.
Under “in CC#N”, `C=Cc1cc2cc3c(cc2oc1=O)OCO3` came in with a fluorescence lifetime of 3.68 ns.
In the case of `CN(C)c1ccc(/C=C/c2cc[n+](CCCOCC(COCCC[n+]3ccc(/C=C/c4ccc(N(C)C)cc4)cc3)(COCCC[n+]3ccc(/C=C/c4ccc(N(C)C)cc4)cc3)COCCC[n+]3ccc(/C=C/c4ccc(N(C)C)cc4)cc3)cc2)cc1`, the fluorescence lifetime is 0.48 ns (in CCCCCCCCO); 0.18 ns (in CCCO); 0.11 ns (in CCO); 0.09 ns (in CO); 0.46 ns (in ClC(Cl)Cl); 0.31 ns (in ClCCl).
Take `COC(=O)C([NH3+])Cc1ccc2oc(-c3ccncc3)nc2c1` (stereo not drawn): the fluorescence lifetime came out at 3.12 ns (in CC1CCCCC1), 6.09 ns (in CC#N), 0.742 ns (in CO) and 0.999 ns (in O).
Turning to `COc1cc(/C=C2/SC(=O)NC2=O)cc(OC)c1O`, the fluorescence lifetime is, setting by setting: (in C1CCCCC1) 0.941 ns; (in C1COCCO1) 1.44 ns; (in CC#N) 0.521 ns; (in CN(C)C=O) 4.47 ns; (in CO) 0.39 ns; (in O) 0.34 ns. This molecule also showed a fluorescence lifetime (in OCC(O)CO) of 4.92 ns and a fluorescence lifetime (in OCCO) of 2.25 ns.
Molecule `C[n+]1ccn(CCCCc2ccc3c(c2)c2ccccc2n3-c2cc(C#N)c(C#N)cc2F)c1` returned a fluorescence lifetime (in CC#N) of 3.26 ns.
The molecule `CC1(C)CC[N+]2=c3c(cc4c(c31)Oc1cc3c(cc1C=4c1ccccc1C(=O)O)C(c1ccccc1C(=O)O)=c1cc4c5c(c1O3)C(C)(C)CC[N+]=5CCC4)CCC2` gave a fluorescence lifetime (in ClC(Cl)Cl) of 2.41 ns.
On to `COc1cc2c(cc1/C=C/C(=C(C#N)C#N)c1ccccc1)c1ccccc1n2C`, for which the fluorescence lifetime (in C1CCOC1) came to 7.35 ns; the fluorescence lifetime (in CC#N) is 7.64 ns; the fluorescence lifetime (in CCO) was 5.52 ns; the fluorescence lifetime (in CCOC(C)=O) is 6.74 ns; the fluorescence lifetime (in CN(C)C=O) is 7.2 ns; the fluorescence lifetime (in CS(C)=O) was 9.07 ns. In addition, the fluorescence lifetime stood at 7.98 ns (in Cc1ccccc1), 8.11 ns (in ClC(Cl)Cl) and 6.44 ns (in ClCCl).
Where the note is “in C1CCOC1”, `CN(C)c1ccc(C2=Nc3scc(-c4ccccc4)[n+]3[B-](F)(F)O2)cc1` returned a fluorescence lifetime of 2.06 ns.
For the molecule `CC1(C)c2ccccc2N(c2ccc(C(=C(C#N)C#N)c3ccc(N4c5ccccc5C(C)(C)c5ccccc54)cc3)cc2)c2ccccc21`, the fluorescence lifetime (in Cc1ccccc1) was found to be 3.1 ns.
The same measure, in the same setting: next, `N#Cc1c(-n2c3ccccc3c3ccccc32)c(C#N)c(-n2c3ccccc3c3ccccc32)c(-n2c3ccccc3c3ccccc32)c1-n1c2ccccc2c2ccccc21`: 17.8 ns; `COc1ccc2c(c1)sc1[n+]2[B-](F)(F)OC(c2ccc(N(C)C)cc2)=N1`: 1.59 ns; `c1cc2c3c(c1)-c1ccc4c5c(ccc(c15)B3c1ccc3c5c(ccc-2c15)CC3)CC4`: 5.28 ns.
`Cc1ccc(-[c+]2c3ccccc3oc3ccccc32)cc1` returned a fluorescence lifetime (in CC#N) of 2.1 ns.
In turn, `c1ccc(-c2nc(-c3ccc(N4CCCC4)cc3)cc(-c3ccc4ccccc4c3)n2)cc1` had a fluorescence lifetime (in ClC(Cl)Cl) of 2.4 ns.
`COc1cc(/C=C/c2ccccc2)cc(OC)c1` yielded a fluorescence lifetime (in CC#N) of 16.9 ns.
As for `N#Cc1coc2ccccc2c1=O`, the fluorescence lifetime reads like this: (in C1CCOC1) 0.93 ns; (in C1COCCO1) 3.6 ns; (in CC#N) 2.17 ns; (in CC(C)O) 1.86 ns; (in CCCCO) 0.96 ns; (in CCCO) 2.03 ns. For the same molecule, the fluorescence lifetime (in CCOC(C)=O) was 1.05 ns; the fluorescence lifetime (in CN(C)C=O) is 1.77 ns; the fluorescence lifetime (in CO) came to 0.59 ns; the fluorescence lifetime (in CS(C)=O) stood at 1.92 ns; the fluorescence lifetime (in ClC(Cl)Cl) was 2.54 ns; the fluorescence lifetime (in O) worked out at 1.36 ns.
For `CC1=[N+]2C(=C(c3ccc(N(C)C)cc3)c3ccc(C)n3[B-]2(F)F)C=C1`, the fluorescence lifetime runs as follows: (in C1CCCCC1) 2.72 ns; (in Cc1ccccc1) 3.24 ns.
As for `COc1nc(Nc2cc3ccc4cccc5ccc(c2)c3c45)nc(OC)n1`, for the setting “in CCCCCCC”, the fluorescence lifetime was determined as 112 ns.
`COc1ccc2c(c1)-c1ccccc1C2=O`: the fluorescence lifetime was 5.3 ns (in C1CCCCC1), 14 ns (in CC#N) and 1.1 ns (in CCO).
For `COc1cc(OC)cc(-c2ccc(-c3ccc(C#N)s3)s2)c1`, the fluorescence lifetime (in C1CCCCC1) was found to be 0.22 ns; the fluorescence lifetime (in C1COCCO1) came to 0.23 ns; the fluorescence lifetime (in CC#N) stood at 0.24 ns; the fluorescence lifetime (in CC(C)O) came out at 0.23 ns; the fluorescence lifetime (in CCCCO) is 0.24 ns; the fluorescence lifetime (in CCO) amounted to 0.24 ns. Further, the fluorescence lifetime is, setting by setting: (in CCOC(C)=O) 0.22 ns; (in CN(C)C=O) 0.28 ns; (in CO) 0.25 ns; (in CS(C)=O) 0.35 ns; (in Cc1ccccc1) 0.22 ns; (in ClC(Cl)Cl) 0.22 ns. For the same molecule, the fluorescence lifetime is 0.23 ns (in ClCCl) and 1.02 ns (in O).
For the molecule `Cc1ccc(-c2cnc3nn4ccccc4c3c2)cc1`, the fluorescence lifetime (in C1CCOC1) stood at 4.6 ns.
Under “in CN(C)C=O”, `O=C([O-])c1c2ccccc2c(C(=O)[O-])c2ccccc12` returned a fluorescence lifetime of 2.2 ns.
Where the note is “in ClCCl”, `CC(C)(C)c1ccc(-c2nc3c4ccc(-c5ccccc5)cc4c4cc(-c5ccccc5)ccc4c3n2-c2ccc(C(C)(C)C)cc2)cc1` came in with a fluorescence lifetime of 10.1 ns.
For `COC(=O)C(Cc1ccc2oc(-c3ccc(N(C)c4ccccc4)cc3)nc2c1)NC(=O)OC(C)(C)C` (stereo not drawn), the fluorescence lifetime reads like this: (in C1CCCCC1) 1.81 ns; (in C1CCOC1) 5.29 ns; (in C1COCCO1) 4.14 ns; (in CC1CCCO1) 4.37 ns; (in CC1COC(=O)O1) 4.3 ns; (in CC#N) 4.23 ns. In addition, the fluorescence lifetime is, setting by setting: (in CC(C)=O) 5.11 ns; (in CC(C)CC(C)(C)C) 1.7 ns; (in CC(C)CO) 4.24 ns; (in CC(C)O) 4.41 ns; (in CC(O)CO) 0.88 ns; (in CCC(C)CC) 1.67 ns. For the same molecule, the fluorescence lifetime is 1.88 ns (in CCCCC); 1.66 ns (in CCCCCC); 1.78 ns (in CCCCCCCCC); 1.79 ns (in CCCCCCCCCC); 4.34 ns (in CCCCCCCO); 4.64 ns (in CCCCCCO). Moreover, the fluorescence lifetime amounted to 5.44 ns (in CCCCCO); 3.97 ns (in CCCCO); 1.59 ns (in CCO); 4.68 ns (in CCOC(C)=O); 4.4 ns (in CCOCC); 5.1 ns (in CN(C)C=O). Further, the fluorescence lifetime reads like this: (in CO) 0.76 ns; (in COCCOC) 1.18 ns; (in CS(C)=O) 4.74 ns; (in Cc1ccccc1) 2.81 ns; (in Cc1ccccc1C) 2.7 ns; (in ClC(Cl)Cl) 4.71 ns. The fluorescence lifetime (in ClCCl) was 6.11 ns; the fluorescence lifetime (in NC=O) stood at 2.35 ns; the fluorescence lifetime (in OC1CCCCC1) turned out to be 4.88 ns; the fluorescence lifetime (in OCCO) was found to be 0.41 ns; the fluorescence lifetime (in c1ccccc1) was found to be 2.97 ns.
In turn, `CC1=[N+]2C(=C(c3ccc(C(=C(c4ccccc4)c4ccccc4)c4ccccc4)cc3)c3ccc(C)n3[B-]2(F)F)C=C1` gave a fluorescence lifetime (in C1CCOC1) of 1.13 ns.
Take `CCC1(CC)c2cc(-c3ccc(-c4ccc5c(c4)C(CC)(CC)c4cc(C(C)(C)C)ccc4-5)cc3)ccc2-c2ccc(C(C)(C)C)cc21`: the fluorescence lifetime reads like this: (in CCCCC) 0.74 ns; (in CCCCCC) 0.69 ns; (in CCCCCCC) 0.7 ns; (in CCCCCCCC) 0.7 ns; (in CCCCCCCCC) 0.72 ns; (in CCCCCCCCCC) 0.79 ns. Also, the fluorescence lifetime runs as follows: (in CCCCCCCCCCCC) 0.78 ns; (in CCCCCCCCCCCCC) 0.82 ns; (in CCCCCCCCCCCCCCC) 0.81 ns; (in CCCCCCCCCCCCCCCC) 0.82 ns; (in CCCCCCCCCCO) 0.79 ns; (in CCCCCCCCCO) 0.87 ns. The fluorescence lifetime by setting is: (in CCCCCCCCO) 0.84 ns; (in CCCCCCCO) 0.8 ns; (in CCCCCCO) 0.81 ns; (in CCCCCO) 0.77 ns; (in CCCCO) 0.79 ns; (in CCCO) 0.72 ns. The molecule further had a fluorescence lifetime (in CCO) of 0.82 ns and a fluorescence lifetime (in CO) of 0.8 ns.
`Cc1ccccc1C1=C2C=c3c(oc4ccc(F)cc34)=[N+]2[B-](F)(F)n2c1cc1c3cc(F)ccc3oc12` had a fluorescence lifetime (in C1CCCCC1) of 4.02 ns, a fluorescence lifetime (in CCOC(C)=O) of 4.22 ns and a fluorescence lifetime (in CO) of 4.3 ns.
For the setting “in CCO”, `c1ccc(-c2nnc(-c3ccc(-n4c5ccccc5c5ccccc54)cc3)o2)cc1` registered a fluorescence lifetime of 2.01 ns.
